Laboratory results from patent US9060997B2, “Antifolate compounds for the treatment of melanoma” (UNIVERSIDAD DE MURCIA, priority 2007, dated 2015).

Columns and labels:
H1264 cells = assay: MTT cell proliferation assay, H1264; format: cell-based; conditions: Homo sapiens, 144 h; H1264, 6 days of treatment
Description: (§1) Four human cancer cells lines (SkMel-28, MCF7, H1264 and Caco-2) were obtained from the American Type Tissue Culture Collection (ATCC) and were maintained in appropriate culture mediums supplemented with 10% fetal calf serum (FCS) and antibiotics, under standard tissue culture conditions (e.g. modified Eagle's medium (MEM) containing 1 mM sodium pyruvate and 10% fetal bovine serum (FES) under 5% CO2/95% air atmosphere.). Cell injury was evaluated by a colorimetric assay for mitochondrial function using the 3-(4,5-dimethylthiazolyl-2)-2,5-diphenyltetrazolium bromide (MTT) cell proliferation assay. For this assay cells were plated in a 96-well plate at a density of 1000 cells/well and grown until they reached 50-60% confluence. Human epidermal melanocytes (HeM) were supplied by Gentaur and were cultured in HAM-F10 medium supplemented with 10% FCS, antibiotics and the human melanocyte growth supplement (Gentaur).

Caco-2 cells = assay: MTT cell proliferation assay, Caco-2; format: cell-based, human; conditions: Homo sapiens, 144 h; Caco-2, 6 days of treatment
Description: as §1

[1] = tested on: Caco-2 and SkMel-28 cells; assay: Cellular uptake of ECG, TMECG and QM; format: in vitro ADME, human; conditions: 50 μM catechins
Description: Cellular uptake was determined by the difference between the initial concentration of catechin and the calculated at specific times in the cellular medium, and expressed as a percentage of catechin at zero time. The values presented are the mean percentage determined from five independent experiments±SD.
For cellular uptake experiments Caco-2 and SkMel-28 cells were grown until reaching 90% confluence. Then, 20 ml of cellular medium containing 50 μM catechins and 0.2 mM ascorbic acid was added and incubated for 60 h in a CO2 incubator. At specified times 1 ml-aliquots were taken and frozen in liquid N2 until the catechin concentrations were determined by HPLC. Catechins were identified by their characteristic elution times and their concentration calculated with respect to calibration curves of known concentrations of catechins.

[2] = tested on: MS, MAT1A, MAT2A, AHYC and DNMT1 mRNA; assay: Methionine cycle and methylase gene expression in SkMel-28 (real-time PCR); format: cell-based, human
Source text: Histograms compare the estimated relative levels of the mRNA with respect to that of β-actin. Values represent the number of copies of mRNA per each 1×10^6 copies of β-actin.
Primers were designer using Primer Express version 2.0 software (Applied Biosystems, Foster City, Calif.) and synthesized by Invitrogen. The sequence of the primers are as follow: MS (forward: 5′-[…]-[…]-3′; […]; MAT1A (forward: 5′-[…]-[…]; […]; The primers designed to amplify FRα cDNA were: FR1 (forward: 5′-[…]-[…]-3′); […]; cDNA samples (1 μL) were used for real-time PCR in a total volume of 20 μL using SYBR Green Reagent (Applied Biosystems) and specific primers on a 7500 Real Time PCR System of Applied Biosystems. The PCR amplification cycles included denaturation 95° C., 15 min; to activate HotStar Taq DNA polymerase and to minimize primer-dimer contribution), and amplification [over 40-50 cycles including denaturation (94° C.; 30 s), annealing (55° C.; 30 s), and extension (72° C.; 1 min)]. All PCR reactions were performed in triplicate and from at least two independent experiments. Non-RT control and negative control samples (without template) were processed in the same manner. The specificity of the amplification was verified by melting curve analysis for all samples, and occasionally by agarosa gel electrophoresis. Amplification of target gene sequences were compared against serial dilutions of know quantities of their purified cDNA fragments, and normalized to the abundance of the house-keeping gene β-actin.

[3] = tested on: B16/F10 melanoma cell tumours; assay: Primary tumour model, B16/F10 melanoma in C57/B16 mice; format: in vivo, mouse
Source text: Translational therapy was then designed to probe the efficacy of this combination on mice induced melanoma tumor. Injection of 5×10^5 B16/F10 melanoma cells in the back of C57/B16 mice formed a blackish tumor mass, which in untreated control mice reached to a tumor area of 3.7±0.7 and 9.3±1.1 cm2 in female and male, respectively, after 21 days of cells inoculation.

human tyrosinase = molecular target: T1, human tyrosinase (Homo sapiens, UniProt P14679); assay: Tyrosinase-catalyzed oxidation, steady-state kinetics; format: biochemical; design: Human tyrosinase was purified to homogeneity from SkMel-28 (1×10^8 cells) following the protocol designed by Yurkow and Laskin (1989); endogenous in cells; host or cells: SkMel-28; conditions: human tyrosinase from SkMel-28, pH 5.5, 25° C.; read-out: Michaelis-Menten constant (Km)
T1 sequence (P14679 19-529): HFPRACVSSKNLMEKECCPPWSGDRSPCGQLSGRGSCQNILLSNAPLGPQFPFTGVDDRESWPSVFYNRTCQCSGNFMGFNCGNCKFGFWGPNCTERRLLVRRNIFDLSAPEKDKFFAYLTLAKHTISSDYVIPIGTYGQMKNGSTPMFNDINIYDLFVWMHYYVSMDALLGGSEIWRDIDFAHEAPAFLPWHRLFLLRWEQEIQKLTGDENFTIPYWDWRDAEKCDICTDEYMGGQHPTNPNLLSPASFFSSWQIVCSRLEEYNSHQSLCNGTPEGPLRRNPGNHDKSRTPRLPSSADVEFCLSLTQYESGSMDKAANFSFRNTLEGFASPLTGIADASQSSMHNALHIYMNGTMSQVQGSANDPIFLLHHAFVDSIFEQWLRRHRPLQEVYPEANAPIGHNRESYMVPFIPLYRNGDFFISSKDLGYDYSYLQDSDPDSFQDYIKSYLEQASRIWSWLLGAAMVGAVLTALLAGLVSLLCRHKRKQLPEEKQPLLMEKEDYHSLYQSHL
Description: The arrow represents the absorbance direction and the time between recordings was 1 min. […] Data was fitted to the Michaelis-Menten equation using non-lineal regression analysis.
Human tyrosinase was purified to homogeneity from SkMel-28 (1×10^8 cells) following the protocol designed by Yurkow and Laskin (1989). TMECG oxidation catalyzed by human tyrosinase was followed using a Perkin-Elmer Lambda-35 spectrophotometer. Steady-state kinetic constants were obtained by measuring the initial rates of TMECG oxidation at 412 nm in 30 mM sodium acetate buffer, pH 5.5 and 25° C.

[4] = SkMel-28, 50 μM, five days, versus untreated SkMel-28

COc1cc(C(=O)O[C@@H]2Cc3c(O)cc(O)cc3O[C@@H]2c2ccc(O)c(O)c2)cc(OC)c1OC [TMECG, 3-O-(3,4,5-trimethoxybenzoyl)-(−)-epicatechin]
IC50 (H1264 cells): 18 µM | IC50 (Caco-2 cells): 33 µM | cellular uptake / membrane transport [1]: greater than the uptake of its related natural catechin, ECG | level of MAT1A mRNA [2, 4]: essentially the some | level of MAT2A mRNA [2, 4]: slightly but significant increase | DNMT1 mRNA ([2]; SkMel-28, treated cells): recovered normal levels | tumor mass reduction ([3]; females, TMECG 2.5 mg/Kg/d): 27% | effect of single treatments ([3]; male mice): not effective | Km (human tyrosinase): 120 ± 20 µM
